Laboratory results taken from US11739070B2, “C5A receptor modulators” (IDORSIA PHARMACEUTICALS LTD, priority 2018, dated 2023).

Target: T1, C5AR1 (Homo sapiens, UniProt P21730)
T1 construct: host or cells: CHO-K1
T1 sequence (P21730 1-350): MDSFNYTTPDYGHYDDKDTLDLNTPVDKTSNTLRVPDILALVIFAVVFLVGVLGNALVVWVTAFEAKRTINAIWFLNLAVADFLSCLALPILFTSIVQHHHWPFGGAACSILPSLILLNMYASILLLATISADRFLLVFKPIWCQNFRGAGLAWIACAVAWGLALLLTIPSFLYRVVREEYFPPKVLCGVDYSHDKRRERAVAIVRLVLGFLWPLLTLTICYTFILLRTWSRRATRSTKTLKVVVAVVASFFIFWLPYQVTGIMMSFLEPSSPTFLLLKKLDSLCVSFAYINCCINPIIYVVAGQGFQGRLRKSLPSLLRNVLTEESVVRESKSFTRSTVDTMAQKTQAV
Assay: hC5a DISCO IC50 assay (PathHunter beta-arrestin, antagonist mode)
Type: cell-based
Details: CHO-K1 C5AR1 beta-arrestin cell line; antagonist vs 1-10 nM C5a agonist; geometric mean values; read-out: C5aR IC50
Outline: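 Antagonist added first, then 1-10 nM C5a agonist; cells incubated 1.5 h at 37 °C. Beta-arrestin signal developed with PathHunter detection reagent, 45 min at RT. IC50 in nmol/l from serial antagonist dilutions, reported as geometric mean of several measurements.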

IC50 [nM] | SMILES
178 | COc1cccc2c1n(Cc1cccnc1C(F)(F)F)c(=O)n2C1CCN(c2c(F)cccc2F)CC1 [Example 55, 1-[1-(2,6-Difluoro-phenyl)-piperidin-4-yl]-4-methoxy-3-(2-trifluoromethyl-pyridin-3-ylmethyl)-1,3-dihydro-benzoimidazol-2-one]
158 | COc1cccc2c1n(Cc1ccccc1C(F)(F)F)c(=O)n2C1CCCN(c2c(C)cccc2C)C1 (stereo not shown) [Example 217, 1-[1-(2,6-Dimethyl-phenyl)-piperidin-3-yl]-4-methoxy-3-(2-trifluoromethyl-benzyl)-1,3-dihydro-benzoimidazol-2-one]
38 | Cc1cccc(F)c1N1CC[C@@H](n2c(=O)n(Cc3ccccc3C(F)(F)F)c3c(OCC(O)CO)cccc32)C1 (stereo partly drawn) [Example 152, 4-(2,3-Dihydroxy-propoxy)-1-[(R)-1-(2-fluoro-6-methyl-phenyl)-pyrrolidin-3-yl]-3-(2-trifluoromethyl-benzyl)-1,3-dihydro-benzoimidazol-2-one]
17 | COc1nccc(C)c1N1CCC(n2c(=O)n(Cc3ccccc3C(F)(F)F)c3c(OC)cccc32)CC1 [Example 234, 4-Methoxy-1-(2′-methoxy-4′-methyl-3,4,5,6-tetrahydro-2H-[1,3′]bipyridinyl-4-yl)-3-(2-trifluoromethyl-benzyl)-1,3-dihydro-benzoimidazol-2-one]
